Laboratory results: publication PMC12312563, “Structures of Listeria monocytogenes MenD in ThDP-bound and in-crystallo captured intermediate I-bound forms” (Acta Crystallographica Section F: Structural Biology …, 2025)

How the values were obtained:
[1] = biological target: T1, LmoMenD (2-succinyl-5-enolpyruvyl-6-hydroxy-3-cyclohexene-1-carboxylate synthase, SEPHCHC synthase) (Listeria monocytogenes, UniProt A0A0H3GD77); design: gene menD
T1 sequence (A0A0H3GD77 1-580): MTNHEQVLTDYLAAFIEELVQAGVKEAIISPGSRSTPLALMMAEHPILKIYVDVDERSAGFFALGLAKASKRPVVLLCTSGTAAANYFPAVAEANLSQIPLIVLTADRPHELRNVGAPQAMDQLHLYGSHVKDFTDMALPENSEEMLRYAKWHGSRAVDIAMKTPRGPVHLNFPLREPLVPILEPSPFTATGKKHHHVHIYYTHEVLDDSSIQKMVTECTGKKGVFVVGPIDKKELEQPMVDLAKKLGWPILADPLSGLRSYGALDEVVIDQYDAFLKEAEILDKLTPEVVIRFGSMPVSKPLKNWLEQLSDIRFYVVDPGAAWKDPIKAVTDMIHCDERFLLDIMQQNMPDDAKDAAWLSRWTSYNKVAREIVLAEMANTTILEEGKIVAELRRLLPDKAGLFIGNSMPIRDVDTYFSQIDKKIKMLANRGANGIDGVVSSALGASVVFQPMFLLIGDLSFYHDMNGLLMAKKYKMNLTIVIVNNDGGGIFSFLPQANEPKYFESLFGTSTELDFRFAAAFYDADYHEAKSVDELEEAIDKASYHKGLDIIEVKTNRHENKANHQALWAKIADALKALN

[2] = biological target: T1, LmoMenD (2-succinyl-5-enolpyruvyl-6-hydroxy-3-cyclohexene-1-carboxylate synthase, SEPHCHC synthase); test: UV/Vis assay of isochorismate consumption; […] decrease of activity at […]; format: biochemical; design: gene menD; full-length LmoMenD, strain 10403s, tag removed by TEV cleavage
[3] = biological target: the molecule itself; test: crystal structure; LmoMenD with ThDP and Mg2+ (PDB 9e9b) or with intermediate I after a 2-oxoglutarate soak (PDB 9mnn); space group P6(4)22, one molecule in the asymmetric unit, tetramer by crystallographic symmetry; PISA analysis of assemblies

Molecule: O=C(O)CCC(=O)C(=O)O [2-oxoglutarate]
- UV/Vis enzyme kinetics (Km, value in supplement); turned over in crystallo to in [1]: the Km values for ThDP, 2-oxoglutarate and isochorismate and kcat were determined

Molecule: O=C(O)c1cc(O)c2ccccc2c1O [DHNA, 1,4-dihydroxy-2-naphthoic acid]
- inhibition at 12.5 µM [2]: 34%

B1: Listeria monocytogenes MenD (2-succinyl-5-enolpyruvyl-6-hydroxy-3-cyclohexene-1-carboxylate (SEPHCHC) synthase) (enzyme, Listeria monocytogenes (strain 10403s))
chain: GAMVTNHEQVLTDYLAAFIEELVQAGVKEAIISPGSRSTPLALMMAEHPILKIYVDVDERSAGFFALGLAKASKRPVVLLCTSGTAAANYFPAVAEANLSQIPLIVLTADRPHELRNVGAPQAMDQLHLYGSHVKDFTDMALPENSEEMLRYAKWHGSRAVDIAMKTPRGPVHLNFPLREPLVPILEPSPFTATGKKHHHVHIYYTHEVLDDSSIQKMVTECTGKKGVFVVGPIDKKELEQPMVDLAKKLGWPILADPLSGLRSYGALDEVVIDQYDAFLKEAEILDKLTPEVVIRFGSMPVSKPLKNWLEQLSDIRFYVVDPGAAWKDPIKAVTDMIHCDERFLLDIMQQNMPDDAKDAAWLSRWTSYNKVAREIVLAEMANTTILEEGKIVAELRRLLPDKAGLFIGNSMPIRDVDTYFSQIDKKIKMLANRGANGIDGVVSSALGASVVFQPMFLLIGDLSFYHDMNGLLMAKKYKMNLTIVIVNNDGGGIFSFLPQANEPKYFESLFGTSTELDFRFAAAFYDADYHEAKSVDELEEAIDKASYHKGLDIIEVKTNRHENKANHQALWAKIADALKALN
notes: MenD, Listeria monocytogenes strain 10403s, menD gene cloned from genomic DNA with printed primers that run from the start to the stop codon; Untagged protein after rTEV cleavage; The forward primer reads ATG GTG ACA..., so the MV at the start may hold one residue more than the natural protein (surmised from the residue numbering); also called LmoMenD; source: E. coli BL21 (DE3), purified …
- stoichiometry N [3]: 4
